From patent US11992011B2, “Compounds for controlling plant pathogens” (VIB VZW, priority 2017, dated 2024)

What was measured:
OsPAL6 = assay: qRT-PCR in rice roots, OsPAL6 (Example 19); type: in vivo, Oryza sativa; conditions: rice cv. Bomba root tissue; 100 μM; harvested 13 days after germination; N=3 pools
Procedure: (§1) After quality control, qPCR was carried out.

Meloidogyne graminicola [1] = assay: Meloidogyne graminicola infection in rice, second experiment (Example 4); type: in vivo; conditions: infected rice, 100 μM; for median number of galls lower compared to untreated controls: 13 days after infection; for plants in which necrosis was present: absent in control plants; for Gall number: harvested 13 days after inoculation; for Gall number / Fraction of empty galls / Galls per adventitious root / Number of J2 / Number of J3 + J4 / Number of adults (with eggs) / Number of adults (without eggs) / Total nematodes: median (IQR); for Likelihood of necrosis: value ± spread
Procedure: Seeds were germinated on wet tissue paper at 30° C. in the dark for three days, followed by transfer to individual PVC tubes (for nematode infection) containing SAP (Reversat et al., 1999). SAP (sand-absorbent polymer) is a mixture of fine silica sand and ultra-absorbent acrylic copolymer (DCM AquaPerla, DSM, Grobbendonk, Belgium) in a ratio of 1 kg sand to 1.5 g of dry copolymer.
Before use, each tube was washed in soapy water and dried in an oven at 70° C. for two days. […] The first two days after transfer, the tubes were covered with a polyethylene film (Saran Film, Dow Chemicals, Midland, USA) to prevent excessive evaporation. Seedlings were watered three times per week with 8 ml of Hoagland solution (Hoagland, 1938).
M. graminicola was extracted from infected Echinocloa crus-galli roots grown in potting soil at 25° C. Roots were washed until most soil was removed, after which they were cut into short fragments (with special care taken to cut open any outwardly visible galls). The cut material was put in […] pore diameter sieves which were put into a tap water bath at room temperature for three days. The water was then poured over a […] mesh sieve. The sieve surface was washed with approximately 50 ml of non-demineralized water, which was collected into a beaker before it could seep through the sieve.
The number of nematodes in five 100 μl samples taken from the nematode suspension was counted under a stereo microscope and averaged to determine inoculum concentration. Each plant (grown per the protocol outlined in the previous section) was then inoculated by injecting the desired number of nematodes in the SAP surrounding the root system using a micro-pipette.
Infection experiments with M. graminicola were performed by inoculating host plants 14 days after transfer to SAP by introducing the desired amount of J2 juveniles next to the root system using a micro pipette. Rice plants (cv. Nipponbare or Kitaake) were inoculated with 250 J2 juveniles per plant; wheat plants (cv. Sahara) were inoculated with 600 J2 juveniles per plant. Plants were harvested 14 days after inoculation. At this point, the plants were phenotyped by measuring the shoot and root length with a ruler, counting the number of adventitious roots and in some experiments by measuring leaf area using the EasyLeafArea software (Easlon and Bloom, 2014) and by determining shoot dry mass after 72 hours of drying in an oven at 70° C. Root systems were then stained in acid fuchsine as described in (Byrd et al., 1983) and left to destain in glycerol with 1 ml/l fuming HCl added for approximately ten days. The number of galls and nematodes was then counted using a binocular microscope. […]
The second experiment was methodologically similar to the first. This time, plants were grown for 15 days before inoculation with 210 nematodes on average and harvested 13 days after inoculation. […]

OsPAL2 = assay: qRT-PCR in rice roots, OsPAL2 (Example 19); type: in vivo, Oryza sativa; conditions: rice cv. Bomba root tissue; 100 μM; harvested 13 days after germination; N=3 pools
Procedure: as §1

OsICS1 = assay: qRT-PCR in rice roots, OsICS1 (Example 19); type: in vivo, Oryza sativa; conditions: rice cv. Bomba root tissue; 100 μM; harvested 13 days after germination; N=3 pools
Procedure: as §1

OsPAL4 = assay: qRT-PCR in rice roots, OsPAL4 (Example 19); type: in vivo, Oryza sativa; conditions: rice cv. Bomba root tissue; 100 μM; harvested 13 days after germination; N=3 pools
Procedure: as §1

Meloidogyne graminicola [2] = assay: Meloidogyne graminicola infection in wheat cv. Sahara (Example 5); type: in vivo; conditions: infected wheat, foliar spray; for Number of galls per AR / Number of galls: n = 9; for Number of galls: per root system; for reduction in gall numbers: vs control
Procedure: For Examples 1, 5 and 10, seeds of the winter wheat cultivar Sahara (Aveve Agrarisch, Landen, Belgium) were used. Seeds were washed in a 10% ethanol solution to remove any residual traces of fungicide and then germinated on wet paper at room temperature for four days; seeds were transferred to SAP tubes and placed in a growth chamber (25° C., 16 hours per day of light). Plants were watered with 8 ml of half-strength Hoagland solution every two days for the first ten days and with 8 ml of full strength Hoagland solution every two days afterwards.
Unless otherwise mentioned, all chemicals for nematode experiments were applied as a foliar spray consisting of the target compound at a concentration of 300 μM together with 0.1% (v/v) Tween 20 surfactant (Calbiochem) in distilled water. Again unless otherwise mentioned, all treatments for the nematode experiments were carried out three times: one and eight days before pathogen inoculation and seven days after pathogen inoculation. In all cases, plants were sprayed until run-off with an atomizer.
Infection experiments with M. graminicola were performed by inoculating host plants 14 days after transfer to SAP by introducing the desired amount of J2 juveniles next to the root system using a micro pipette. Rice plants (cv. Nipponbare or Kitaake) were inoculated with 250 J2 juveniles per plant; wheat plants (cv. Sahara) were inoculated with 600 J2 juveniles per plant. Plants were harvested 14 days after inoculation. At this point, the plants were phenotyped by measuring the shoot and root length with a ruler, counting the number of adventitious roots and in some experiments by measuring leaf area using the EasyLeafArea software (Easlon and Bloom, 2014) and by determining shoot dry mass after 72 hours of drying in an oven at 70° C. Root systems were then stained in acid fuchsine as described in (Byrd et al., 1983) and left to destain in glycerol with 1 ml/l fuming HCl added for approximately ten days. The number of galls and nematodes was then counted using a binocular microscope.
In this experiment, the compounds PA, MDCA and 4-IBA were tested as foliar spray in the monocot staple crop wheat (Triticum aestivum, cv. Sahara) against the nematode Meloidogyne graminicola. The bacterial compound LPS (lipopolysaccharide), which is a potent inducer of the plant immune system and a known priming agent (Desaki et al., 2006), was also included as a positive control.

| Structure (SMILES) | Fold change vs. control, OsPAL6 expression (OsPAL6) | median number of galls lower compared to untreated controls (Meloidogyne graminicola [1]) [%] | plants in which necrosis was present (Meloidogyne graminicola [1]) | Gall number (Meloidogyne graminicola [1]) | Fraction of empty galls (Meloidogyne graminicola [1]) | Galls per adventitious root (Meloidogyne graminicola [1]) | Number of J2 (Meloidogyne graminicola [1]) | Number of J3 + J4 (Meloidogyne graminicola [1]) | Number of adults (with eggs) (Meloidogyne graminicola [1]) | Number of adults (without eggs) (Meloidogyne graminicola [1]) | Total nematodes (Meloidogyne graminicola [1]) | Likelihood of necrosis (Meloidogyne graminicola [1]) | Fold change vs. control, OsPAL2 expression (OsPAL2) | Fold change vs. control, OsICS1 expression (OsICS1) | Fold change vs. control, OsPAL4 expression (OsPAL4) | Number of galls per AR (Meloidogyne graminicola [2]) | Number of galls (Meloidogyne graminicola [2]) | reduction in gall numbers (Meloidogyne graminicola [2]) [%] |
| --- | --- | --- | --- | --- | --- | --- | --- | --- | --- | --- | --- | --- | --- | --- | --- | --- | --- | --- |
| O=C(O)/C=C/c1ccc2c(c1)OCO2 [MDCA, 3,4-methylenedioxycinnamic acid] | 1.40 | 28 | roughly 75% | 8.0 (IQR = 1.0) | 0.11 (IQR = 0.03) | 0.80 (IQR = 0.17) | 0.0 (IQR = 0.0) | 7.0 (IQR = 5.0) | 0.0 (IQR = 1.0) | 10.0 (IQR = 2.0) | 17.0 (IQR = 5.0) | 0.78 ± 0.44 | 1.86 | 1.73 | 2.38 | 2.4 ± 0.8 | 24.6 ± 6.3 | −35 |
| O=C(O)c1ccc2c(c1)OCO2 [PA, Piperonylic acid] | 1.26 | 36 | roughly 75% | 7.0 (IQR = 1.8) | 0.13 (IQR = 0.17) | 0.62 (IQR = 0.13) | 0.0 (IQR = 1.0) | 8.0 (IQR = 2.5) | 0.0 (IQR = 0.0) | 5.0 (IQR = 1.8) | 13.5 (IQR = 2.5) | 0.70 ± 0.48 | 1.29 | 1.36 | 3.04 | 2.5 ± 1.1 | 25.6 ± 6.5 | −33 |
